In experiment [1] the test system is systemic allergic disease. The following applies: humans, subcutaneous injection; cited from earlier work.
For experiment [2], the target named is T1, IgE Fc receptor of human basophils (Homo sapiens, UniProt P12319).
T1 construct: host or cells: human basophils
T1 sequence (P12319 26-257): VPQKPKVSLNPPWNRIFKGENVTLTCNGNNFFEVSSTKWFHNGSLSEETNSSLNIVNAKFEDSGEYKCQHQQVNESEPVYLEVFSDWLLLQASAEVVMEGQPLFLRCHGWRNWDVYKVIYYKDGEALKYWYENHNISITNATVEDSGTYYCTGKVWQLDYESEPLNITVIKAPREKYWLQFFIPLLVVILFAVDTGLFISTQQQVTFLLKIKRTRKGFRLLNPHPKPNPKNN
T1 sequence (Q01362 1-244 partner): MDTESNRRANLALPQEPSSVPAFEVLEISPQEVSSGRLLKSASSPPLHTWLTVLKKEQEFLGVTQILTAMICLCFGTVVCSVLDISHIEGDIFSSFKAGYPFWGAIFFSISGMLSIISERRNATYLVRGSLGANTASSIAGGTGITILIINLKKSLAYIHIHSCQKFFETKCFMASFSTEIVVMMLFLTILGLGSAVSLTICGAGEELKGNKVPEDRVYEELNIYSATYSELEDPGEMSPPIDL
T1 sequence (P30273 19-86 partner): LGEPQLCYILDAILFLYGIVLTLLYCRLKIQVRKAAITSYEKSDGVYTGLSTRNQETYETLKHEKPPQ
The following applies: Plummer et al. 1983; cited from earlier work.

The test system of experiment [3] is MONOCYTE/MACROPHAGE Fc Receptor IgG. The experiment in a line: Rosette inhibition assay, IgG-coated ox erythrocytes, monocytes / U937. Format: binding, human. As to conditions: relative to intact monomeric myeloma protein at equal concentration; 15 min preincubation. The method, then:
(§1) The Fc receptor blocking activity of the subject peptides was assessed using well established techniques and procedures. In particular, a rosette assay was employed which uses either monomeric, chemically or heat aggregated human IgG or IgE obtained from human myeloma sera. (Gonzalez-Molina, et al., J. Clin. Invest., 59, 616 (1977); Spiegelberg, et al. in Immunoassays: Clinical Laboratory Techniques for the 1980's (Alan R. Liss: New York, 1980), pp. 287-300). The IgG or IgE is then adsorbed to ox-erythrocytes which has been previously treated with trypsin and pyruvic aldehyde. […] Addition of inhibitor myeloma proteins or inhibitor peptides produced a reproducable reduction of rosette formation, […], phosphate buffered isotonic saline, was used alone as control and then multiplying the calculated quotient by 100.
(§2) Table 1 presents the inhibition observed by representative peptide inhibitors calculated as a percentage of the inhibition observed with intact, monomeric myeloma proteins. […]

The next experiment has as its system BASOPHIL Fc Receptor IgG. Kind of experiment: Rosette inhibition assay, IgG-coated ox erythrocytes, basophils. Format: binding, human. As to conditions: relative to intact monomeric myeloma protein at equal concentration; 15 min preincubation. The procedure: as §1, §2
Experiment [4] deals with NEUTROPHIL (PMN) Fc Receptor IgG. Kind of experiment: Rosette inhibition assay, IgG-coated ox erythrocytes, fresh human PMNs. The following applies: relative to intact monomeric myeloma protein at equal concentration; 15 min preincubation. Format: binding. The procedure: as §1, §2
For experiment [5], the system named is human monocyte IgG Fc receptors. The following applies: Ciccimarra et al. 1975; Ratcliffe and Stanworth 1982; cited from earlier work.
The test system of a further experiment is human mast cells. The following applies: Stanworth et al. 1979; cited from earlier work.
The subject of a further experiment is rodent mast cells. As to conditions: Stanworth et al. 1979; cited from earlier work.
Experiment [6] concerns granulocytes, monocytes and macrophages. The following applies: in vitro; cited from earlier work.

Ends that are not written are not given here. Peptide text beside a SMILES is read from it.

Data on five compounds can be found in US4683292A, “Immunotherapeutic polypeptide agents which bind to lymphocyte immunoglobulin FC receptors” (Immunetech, Inc., priority 1983, dated 1987).

As for “Asp-Ser-Asp-Pro-Arg (DSDPR; printed: Asp-Ser-Asp-Pro-Arg) [pentapeptide derived from human IgE Cε 3 at aa 320-324]”, the “inhibition of systemic allergic disease” value in [1] is recorded as “inhibit systemic allergic disease”. Further, in experiment [2], the “blocking of human IgE binding to basophil IgE Fc receptors” value is listed as “up to 70%”.
As for `CC(=O)N[C@@H](CCC(N)=O)C(=O)N1CCC[C@H]1C(=O)N[C@@H](CCC(=O)O)C(=O)N[C@@H](CC(N)=O)C(=O)O` [Ac--Gln--Pro--Glu--Asn, Ac-Gln-Pro-Glu-Asn] (Ac-QPEN-OH), the “Rosette inhibition expressed as percent inhibition by monomeric IgG, monocyte/macrophage Fc receptor IgG” value in experiment [3] amounted to 19%. The “Rosette inhibition expressed as percent inhibition by monomeric IgG, basophil Fc receptor IgG” value in the experiment on BASOPHIL Fc Receptor IgG was determined as 74%. Moreover, the “Rosette inhibition expressed as percent inhibition by monomeric IgG, neutrophil (PMN) Fc receptor IgG” value in experiment [4] is 95%.
“QYDSTYR [heptapeptide identical to IgG aa 295-301]”: in experiment [5], the “blocking of IgG binding to human monocyte IgG Fc receptors” value was “slightly block”.
For “PRKTKGSGFFVF [portion of Cε 4 of human IgE, aa 495-506]”, the “degranulation of mast cells” value in the experiment with human mast cells and in the experiment with rodent mast cells was “cause degranulation” in each case.
“Gly-Gln-Pro-Arg (GQPR; printed: Gly-Gln-Pro-Arg) [Rigin, tetrapeptide analogue of Tuftsin]”: the stimulation of phagocytosis result in experiment [6] is recorded as “phagocytosis-stimulating abilities similar to those of Tuftsin”.
